Assay results published in patent publication US20150141580A1, “OPTIMIZED DRUG CONJUGATES” (SynDevRx, Inc., priority 2010, published 2015).

Assay: Pharmacokinetics of polymer conjugate, plasma SDX-7539 by LC-MS/MS
Type: in vivo, Sprague-Dawley rats
Conditions: after SDX-7539 30 mg/kg or SDX-7320 200 mg/kg IV, rat
Procedure: FIG. 6 is a graph showing the plasma concentration of the active metabolite, SDX-7539, as a function of time in Sprague-Dawley rats, to which either the polymer conjugate SDX-7320 (single bolus, intravenous injection, 200 mg/kg) or the small molecule SDX-7539 (single bolus, intravenous injection, 30 mg/kg) has been administered.
The polymer conjugate, SDX-7320, or the in vivo release product, SDX-7539 were administered to Sprague-Dawley rats (N=3). Blood was collected over 48 hours after dosing to determine the plasma concentration of SDX-7539 by LC-MS/MS. The LLOQ for SDX-7539 was 2.5 nM. The terminal elimination half-life for SDX-7539 was estimated by fitting a linear regression to the In[SDX-7539] versus time data. […] Cmax for the polymer is about 2% of the value for the small molecule.

CO[C@@H]1[C@H](OC(=O)NC2CCC(N)CC2)CC[C@]2(CO2)[C@H]1[C@@]1(C)O[C@@H]1CC=C(C)C (stereo partly shown) [SDX-7539]
AUC for SDX-7539: comparable
